Experiments:
[1] = system: CH1 cancer cell line; assay: Cytotoxicity, MTT assay (Brabec group); format: cell-based; conditions: for IC50: 72 h incubation, MTT; for cytotoxicity towards CH1 (in words): highest test concentration 130 μM
Method: (§1) The cytotoxicity test of ZL07, ZL33, ZL38 and ZL54 against A2780, SW480, A549 and CH1 cell lines was performed by Viktor Brabec group (Institute of Biophysics, Academy of Sciences of the Czech Republic). After plating, the cells were treated with ZL07, ZL33, ZL38 and ZL54. After 72h of incubation 10 μl of MTT (2.5 mg/ml; CALBIOCHEM) was added to each well and incubated for 4 h in culture conditions. At the end of the incubation period the medium was removed and the formazan product was dissolved in 100 μl DMSO. The cell viability was evaluated by measurement of the absorbance at 570 nm, using an Absorbance Reader SUNRICE TECAN SCHOELLER. […] All experiments were made in quadruplicate.

[2] = system: A549 cancer cell line; assay: Cytotoxicity, MTT assay (Brabec group); format: cell-based; conditions: for IC50: 72 h incubation, MTT
Method: as §1

[3] = system: SW480 cancer cell line; assay: Cytotoxicity, MTT assay (Brabec group); format: cell-based; conditions: for IC50: 72 h incubation, MTT; for cytotoxicity towards SW480 (in words): highest test concentration 130 μM
Method: as §1

[4] = system: human ovarian A2780 cancer cells; assay: Cancer cell cytotoxicity, SRB assay; format: cell-based; conditions: 24 h exposure, 72 h recovery, SRB; read-out: A2780 IC50
Method: Cancer Cell Cytotoxicity. After plating, human ovarian A2780 cancer cells were treated with Ir^III complexes on day 3 at concentrations ranging from 0.5 μM to 100 μM. Solutions of the Ir^III complexes were made up in 0.125% DMSO to assist dissolution. Stock solutions of the IrIII complexes were firstly prepared in DMSO to assist dissolution, and then diluted into 0.9% saline and medium. After plating 5000 A2780 cells per well on day 1, IrIII complexes were added to the cancer cells on day 3 at concentrations ranging from 0.05 μM to 100 μM. Cells were exposed to the complexes for 24 h, washed, supplied with fresh medium, allowed to grow for three doubling times (72 h), and then the protein content measured (proportional to cell survival) using the sulforhodamine B (SRB) assay.^15 […]. The standard errors are based on two independent experiments of three replicates each.

[5] = system: 9-ethyladenine (9-EtA); assay: Interactions with nucleobases: 9-EtA adduct formation (1H NMR); format: binding; conditions: 1 mM, 1 mol equiv 9-EtA, D2O, 310 K
Method: (§2) Interactions with Nucleobases. The reaction of ZL01, ZL03, ZL04, ZL07, ZL25, ZL33, ZL37, ZL38, ZL43 and ZL54 and ZL33A with nucleobases typically involved addition of a solution containing 1-2 mol equiv of nucleobase in D2O, to an equilibrium solution of ZL01, ZL03, ZL04, ZL07, ZL25, ZL33, ZL37, ZL38, ZL43, ZL54 and ZL33A in a solution of 5% MeOD-d4/95% D2O (v/v). ^1H NMR spectra of these solutions were recorded at 310 K after various time intervals.
(§3) Since DNA is a potential target site for transition metal anticancer complexes,^18 nucleobase binding reactions of compounds ZL01, ZL03, ZL04, ZL07, ZL25, ZL33, ZL33A, ZL37, ZL38, ZL43 and ZL54 with nucleobase models 9-ethylguanine (9-EtG) and 9-ethyladenine (9-EtA), were investigated. Solutions of ZL01, ZL03, ZL04, ZL07, ZL25, ZL33, ZL37, ZL38, ZL43 and ZL54 (1 mM) (containing an equilibrium mixture of these complexes and their respective aqua adducts) with 1 mol equivalent of 9-EtG or 9-EtA in D2O were prepared, and ^1H NMR spectra were recorded at different time intervals.

[6] = Kinetics of hydrolysis followed by 1H NMR; format: physicochemical; conditions: for rate of hydrolysis (in words): 1H NMR, even at 278K; for k (hydrolysis): 0.2 mM, 5% MeOD-d4/95% D2O, pH* 3; for Ea (Arrhenius activation energy of hydrolysis): from Arrhenius plot; for ΔH^‡ (activation enthalpy of hydrolysis) / ΔS^‡ (activation entropy of hydrolysis): from Eyring plot
Method: Kinetics for Hydrolysis. Although complexes ZL01-ZL04, ZL07, ZL38 and ZL43 hydrolyzed too rapidly to monitor by ^1H NMR, The kinetics of hydrolysis for complexes ZL25, ZL33, ZL37 and ZL54 were followed by ^1H NMR at different temperatures. For this, solutions of the complexes with a final concentration of 0.2 mM in 5% MeOD-d4/95% D2O (v/v) were prepared by dissolution of the complexes in MeOD-d4 followed by rapid dilution using D2O with a pH* of about 3 (acidified with HClO4), so that the aqua ligand was not deprotonated. ^1H NMR spectra were taken after various time intervals. The rates of hydrolysis were determined by fitting plots of concentrations (determined from ^1H NMR peak integrals) versus time to a pseudo first-order equation using ORIGIN version 7.0. The Arrhenius activation energy (Ea), activation enthalpies (ΔH^¢), and activation entropy (ΔS^‡) for compounds ZL25, ZL33, ZL37 and ZL54 were determined from the slopes of the Arrhenius and intercepts of Eyring plots.
The rates of hydrolysis of compounds ZL01-ZL04, ZL07, ZL25, ZL33, ZL37, ZL38, ZL43 and ZL54 in a 5% MeOD-d4/95% D2O were monitored by ^1H NMR at different temperature from 278 to 298 K by the observation of new peaks over time due to aqua adduct formation. Five percent MeOD was used to improve solubility, and acidic conditions (D2O, pH* 3) were used to prevent the deprotonation of the aqua complex as a secondary reaction. […] The percentage of aqua peak formation for ZL25, ZL33, ZL37 and ZL54 was plotted against time and was fitted to pseudofirst order kinetics (FIG. 3), and their halflife times were calculated (Table 1). The Arrhenius activation energy (Ea), activation enthalpy (ΔH^¢), and activation entropy (ΔS^‡) of compound ZL25, ZL33, ZL37 and ZL54 are listed in Table 4. The large negative ΔS^‡value for compound ZL54 is notable. The extent of hydrolysis at equilibrium is medium for all compounds, ranged from 30% to 60%.

[7] = system: 9-ethylguanine (9-EtG); assay: Interactions with nucleobases: 9-EtG adduct formation (1H NMR); format: binding; conditions: 1 mM, 1 mol equiv 9-EtG (ZL33A: 2 mol equiv), D2O, 310 K
Method: as §2, §3
Interactions with Nucleobases. Since DNA is a potential target site for transition metal anticancer complexes,^23 the binding of 9-ethylguanine (9-EtG) to complexes ZL47, ZL49, ZL69, ZL74 and ZL107 was studied.

[8] = system: ca. 60 cell lines within nine tumour type subpanels; format: cell-based
Description: Six complexes, [(η^5-C5Me4C6H4C6H5)Ir(bpy)Cl]PF6 (ZL25, bpy=2,2′-bipyridine), [(η^5-C5Me4C6H5)Ir(phen)Cl]PF6 (ZL33, phen=1,10-phenanthroline), [(η^5-C5Me4C6H4C6H5) Ir(pico)Cl] (ZL43, pico=picolinate), [(η^5-C5Me5)Ir(2-phpy)Cl] (ZL47), [(η^5-C5Me4C6H4C6H5)Ir(2-phPY)(D2O)Cl] (ZL49) and [(η^5-C5Me4C6H4C6H5) Ir(phen)Cl]PF6 (ZL54), were selected by Developmental Therapeutics Program of National Cancer Institute (NCI, U.S.A.) for in vitro screening test, in which 5 complexes except ZL43 are selected for further testing. The five complexes were tested on ca. 60 cell lines within nine tumour type subpanels at five concentrations ranging from 0.01 to 100 μM.

Row | Compound | IC50 [1] [µM] | IC50 [2] [µM] | IC50 [3] [µM] | IC50 [4] [µM] | Reaction with 9-EtA, extent of adduct formation ([5]; 10 min) [%] | Reaction with 9-EtA, extent of adduct formation ([5]; 24 h) [%] | rate of hydrolysis (in words) [6] | Reaction with 9-EtG, extent of adduct formation ([7]; 10 min) [%] | k (hydrolysis) ([6]; 278 K) [min⁻¹] | Ea (Arrhenius activation energy of hydrolysis) [6] [kcal/mol] | ΔH^‡ (activation enthalpy of hydrolysis) [6] [kcal/mol] | ΔS^‡ (activation entropy of hydrolysis) [6] [J K^−1mol^−1] | Reaction with 9-EtG, extent of adduct formation ([7]; 24 h) [%] | further results
1 | N.N.[Cl][Pt][Cl] [Cisplatin, reference compound] | 0.59 ± 0.1 | 5.9 ± 1.9 | 9.24 ± 1.1 | 1.2 |  |  |  |  |  |  |  |  |  | 
2 | Cc1c(C)c(C)[c-](C)c1C.[Cl-].[Cl-].[Ir+3].c1cnc2c(c1)ccc1cccnc12 [ZL07, [(η^5-C5Me5)Ir(phen)Cl]Cl] | 50.7 ± 2.8 | > 130 | 80.1 ± 1.5 | > 100 | 0 | 0 | too rapid to be observed | 73.1 |  |  |  |  |  | cytotoxicity towards CH1 (in words) [1]: moderate activity; cytotoxicity towards SW480 (in words) [3]: moderate activity
3 | Cc1c(C)c(-c2ccc(-c3ccccc3)cc2)[c-](C)c1C.F[P-](F)(F)(F)(F)F.[Cl-].[Ir+3].c1ccc(-c2ccccn2)nc1 (stereo not shown) [ZL25, [(η^5-C5Me4C6H4C6H5)Ir(bipy)Cl]PF6] |  |  |  | 0.57 | 0 | 0 |  | 24.2 | 0.0249 | 14.4 | 13.9 | −66.02 |  | CC50 [8]: 67.6 µM; Mean graph midpoint (MID) TGI ([8]; ca. 60 cell lines, 0.01 to 100 μM): 19.1 µM; GI50 ([8]; ca. 60 cell lines, 0.01 to 100 μM, read-out: Mean graph midpoint (MID) GI50): 4.1 µM; selectivity among tumour type subpanels (in words) ([8]; mean graphs): selectivity with higher activity not only towards leukemia, CNS cancer, melanoma, and prostate cancer, but also against colon cancer and breast cancer; k (hydrolysis) ([6]; 283 K): 0.0405 min⁻¹; k (hydrolysis) ([6]; 293 K): 0.0986 min⁻¹
4 | Cc1c(C)c(-c2ccccc2)[c-](C)c1C.F[P-](F)(F)(F)(F)F.[Cl-].[Ir+3].c1ccc(-c2ccccn2)nc1 (stereo not shown) [ZL37, [(η^5-C5Me4C6H5)Ir(bipy)Cl]PF6] |  |  |  | 15.9 | 0 | 0 |  | 18.6 | 0.0341 | 19.7 | 19.1 | 14.7 |  | k (hydrolysis) ([6]; 283 K): 0.0652 min⁻¹; k (hydrolysis) ([6]; 288 K): 0.1229 min⁻¹
5 | Cc1c(C)c(-c2ccccc2)[c-](C)c1C.O=C([O-])c1ccccn1.[Cl-].[Ir+3] (stereo not shown) [ZL38, [(η^5-C5Me4C6H5)Ir(η^2-C5H4N-2-CO2)Cl]] | > 130 | > 130 | > 130 | > 100 | 76.0 | 76.0 | too rapid to be observed | 100 |  |  |  |  | 100 | cytotoxicity towards CH1 (in words) [1]: nontoxic; cytotoxicity towards A549 (in words) ([2]; highest test concentration 130 μM): nontoxic; cytotoxicity towards SW480 (in words) [3]: nontoxic
6 | Cc1c(C)c(-c2ccc(-c3ccccc3)cc2)[c-](C)c1C.O=C([O-])c1ccccn1.[Cl-].[Ir+3] (stereo not shown) [ZL43, [(η^5-C5Me4C6H4C6H5)Ir(η^2—C5H4N-2-CO2)Cl]] |  |  |  | 16.3 | 71 | 71 | too rapid to be observed | 100 |  |  |  |  | 100 | 
7 | Cc1c(C)c(-c2ccc(-c3ccccc3)cc2)[c-](C)c1C.F[P-](F)(F)(F)(F)F.[Cl-].[Ir+3].c1cnc2c(c1)ccc1cccnc12 (stereo not shown) [ZL54, [(η^5-C5Me4C6H4C6H5)Ir(phen)Cl]PF6] | 0.69 ± 0.04 | 1.58 ± 0.4 | 1.38 ± 0.2 | 0.72 | 0 | 0 |  | 62.2 | 0.0179 | 10.9 | 10.4 | −121.2 |  | times more active than cisplatin ([2]; A549): ~3.7 times; times more active than cisplatin ([3]; SW480): about 6.7 times; k (hydrolysis) ([6]; 288 K): 0.0352 min⁻¹; k (hydrolysis) ([6]; 293 K): 0.0516 min⁻¹
8 | [(η^5-C5Me4C6H5)Ir(phen)(H2O)]^2+ [ZL33A] |  |  |  | 6.7 | 0 | 0 |  | 65 |  |  |  |  | 73 | 

Source: patent US9408853B2, “Iridium/rhodium anti-cancer compounds” (University of Warwick, priority 2010, dated 2016)
